Results: patent US8648169B2, “Methods of use of Trk receptor modulators” (The Royal Institution for the Advancement of …, priority 2006, dated 2014)
Values joined by “and” are separate entries in the source; they are usually repeats but may differ in a detail not shown here. Equal values may be shown once. “Also recorded” adds a separate entry of the source. No end group written: not given here.

Experiments:
[1] = test system: retinal ganglion cells (RGCs); assay: RGC loss in ocular hypertension (glaucoma) model, retrogradely labeled surviving RGCs counted in flat mounted retinas;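 as to all read-outs here: female Wistar rats aged 8 weeks with three episcleral veins cauterized in the right eye, sham-operated left eye as normal IOP control, at least six retinas averaged per group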; details: for % RGCs loss at day 49 (vs. Normal) / % RGCs loss at day 42 (vs. Norma): cauterized eye; for RGC loss (% of normal IOP): +daily betaxolol (days 4-35)
Method: Using retrograde tracers, surviving RGCs were labeled at the cell soma and flat retinal spreads were analyzed for RGC numbers (Table 2).
Surviving RGCs, identified by retrograde labeling, were counted at day 42 post-surgery. In this protocol, the TrkA agonist or controls were not given between days 21 and 42, to evaluate whether any protection could be long-lived. […] Each data point represents the average of at least 6 retinas/experimental group±sd. […] Peptidomimetic D3 (TrkA agonist) or controls were injected intraocularly, each injection at 1 μg in 1 μl. […] Retrogradely labeled surviving RGCs at day 42 post-cauterization were counted in flat mounted retinas (except rows 3 and 4 that were terminated at days 14 and 28). Two investigators counted the RGCs, with one unaware of the groups.
Episcleral cauterization was performed under anesthesia in Wistar rats, female, 8 weeks of age. After a conjunctival incision, extra-ocular muscles were isolated and the major limbal draining veins were identified based on location, relative immobility, larger caliber and branching pattern. Cauterization of three episcleral vessels in the right eye were done with a 30″ cautery tip. The left eye in each animal was used as normal IOP control after sham-surgery (conjuctival incisions with no cauterization). […] Planar ophthalmoscopy was used to confirm normal perfusion of the retina at elevated IOP. […] IOP was measured using a Tonopen XL tonometer under light anesthesia (intramuscular injection of ketamine, 4 mg/kg; xylazine, 0.32 mg/kg; and acepromazine, 0.4 mg/kg). Initially IOP was measured daily (three consecutive readings are taken each time) and then weekly until termination.
A puncture was made in the eye wall with a 30 G needle to place a cannula in the orbit. The tip of the needle was inserted at a 45° angle through the sclera into the vitreous body. This route of administration avoided injury to eye structures.

[2] = test system: intraocular pressure (IOP) of rat eyes
From the text: High IOP was induced in rat eyes, by reducing aqueous humor outflow through episcleral vein cauterization, while the contralateral eyes were sham-operated and were used as controls (FIG. 2).

axotomized RGCs [3] = assay: RGC survival in optic nerve axotomy; format: in vivo
From the text: It is important to contrast the results in this glaucoma model with those published in optic nerve axotomy (where the optic nerve is sectioned or crushed and RGC axons are damaged). The two are very different models of RGC damage, where glaucoma is chronic and progressive and is an intraocular disease while axotomy is acute and is an extraocular disease. Thus, in optic nerve axotomy NTFs have been applied successfully. The survival of an axotomized optic nerve was promoted by NGF, BDNF, NT-4, CNTF, as well as bFGF, and GDNF.

TrkA = TrkA (Homo sapiens, UniProt P04629); details: irrespective of whether the p75 receptor is expressed; cited from earlier work
TrkA, sequence (P04629 33-796, species assumed): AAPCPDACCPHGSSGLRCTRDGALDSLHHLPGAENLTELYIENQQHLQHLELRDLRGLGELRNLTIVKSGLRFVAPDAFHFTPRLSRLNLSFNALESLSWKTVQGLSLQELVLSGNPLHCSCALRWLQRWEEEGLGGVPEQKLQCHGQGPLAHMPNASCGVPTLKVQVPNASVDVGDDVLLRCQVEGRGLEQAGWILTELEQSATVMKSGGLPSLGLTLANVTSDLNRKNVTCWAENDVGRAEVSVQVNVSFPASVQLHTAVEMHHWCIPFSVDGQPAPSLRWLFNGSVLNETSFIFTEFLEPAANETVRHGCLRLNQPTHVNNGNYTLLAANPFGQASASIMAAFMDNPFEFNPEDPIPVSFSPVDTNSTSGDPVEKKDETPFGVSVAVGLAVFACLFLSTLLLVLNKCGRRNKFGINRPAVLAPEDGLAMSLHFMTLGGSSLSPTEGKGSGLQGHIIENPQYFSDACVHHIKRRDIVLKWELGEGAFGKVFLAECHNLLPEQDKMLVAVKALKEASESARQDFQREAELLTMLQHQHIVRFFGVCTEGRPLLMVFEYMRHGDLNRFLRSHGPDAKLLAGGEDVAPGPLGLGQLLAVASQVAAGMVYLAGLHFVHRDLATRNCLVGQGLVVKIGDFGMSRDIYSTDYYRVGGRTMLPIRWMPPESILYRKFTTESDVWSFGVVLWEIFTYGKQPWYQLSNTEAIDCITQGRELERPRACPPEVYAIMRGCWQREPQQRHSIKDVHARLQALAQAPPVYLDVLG

CNS = details: cited from earlier work
p75 receptor = molecular target: T1, p75 receptor (Homo sapiens, UniProt P08138); details: cited from earlier work
T1 sequence (P08138 29-427): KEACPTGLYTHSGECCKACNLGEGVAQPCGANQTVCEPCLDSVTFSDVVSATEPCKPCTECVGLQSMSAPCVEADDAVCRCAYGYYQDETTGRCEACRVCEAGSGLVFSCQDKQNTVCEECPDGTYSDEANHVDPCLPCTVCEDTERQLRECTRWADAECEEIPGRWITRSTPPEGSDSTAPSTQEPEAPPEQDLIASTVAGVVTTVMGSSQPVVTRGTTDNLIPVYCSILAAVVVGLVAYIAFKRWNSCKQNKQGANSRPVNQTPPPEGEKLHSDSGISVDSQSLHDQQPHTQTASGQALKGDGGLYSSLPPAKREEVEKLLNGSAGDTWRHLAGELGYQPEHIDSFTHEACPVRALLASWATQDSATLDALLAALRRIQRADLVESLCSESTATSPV

axotomized RGCs [4] = details: other studies; cited from earlier work
[5] = daily betaxolol days 14-49 (~17 days of high IOP), intraocular injections at days 14 & 21
[6] = daily betaxolol days 14 to 42 (~17 days of high IOP), intraocular injections 1 μg at days 14 & 21
[7] = no betaxolol, 42 days of high IOP, intraocular injections 1 μg at days 14 & 21
[8] = no betaxolol, 49 days of high IOP, intraocular injections at days 14 & 21

## CC(C)NCC(O)COc1ccc(CCOCC2CC2)cc1 (stereo not drawn) [Betaxolol, betaxolol, reference compound]
[1]; daily betaxolol days 14-49 alone, no intraocular injection
  % RGCs loss at day 49 (vs. Normal): 27 ± 5%
[1]; daily betaxolol days 14-49 alone, no intraocular injection, listed as betaxolol
  % RGCs loss at day 49 (vs. Normal): 27%
[1]; daily betaxolol days 14 to 42 alone, no intraocular injection
  % RGCs loss at day 42 (vs. Norma): 21 ± 2%
[1]; daily betaxolol days 14 to 42 alone, no intraocular injection, listed as betaxolol
  % RGCs loss at day 42 (vs. Norma): 21%
[1]; day 0 post-cautery
  RGC loss (% of normal IOP): 0%
[1]; day 7 post-cautery
  RGC loss (% of normal IOP): 3 ± 3%
[1]; day 14 post-cautery
  RGC loss (% of normal IOP): 4 ± 3%
[1]; day 21 post-cautery
  RGC loss (% of normal IOP): 7 ± 3%
[1]; day 28 post-cautery
  RGC loss (% of normal IOP): 10 ± 4%
[1]; day 35 post-cautery
  RGC loss (% of normal IOP): 14 ± 2%
[1]; day 42 post-cautery
  RGC loss (% of normal IOP): 20 ± 5%
[2]; cauterized rats receiving daily topical betaxolol
  IOP by day 7: normal IOPs
[2]; daily topical betaxolol, normal eyes
  effect on normal IOP of non-cauterized eyes: no significant effect

## NCCCC[C@@H]1NC(=O)C(CCC(=O)O)NC(=O)c2cc([N+](=O)[O-])ccc2OCCC(C(=O)NCC(=O)O)NC1=O (stereo partly drawn) [D3]
Axotomized RGCs [3]
  survival of axotomized RGCs: strong survival-promoting effects
TrkA
  activity at TrkA: selective partial agonist
CNS; evaluated previously, spatial memory tests
  effect on cholinergic neurons in the CNS: protect the number, phenotype, and function of cholinergic neurons
p75 receptor
  binding to p75: does not bind
[1]; [5]
  % RGCs loss at day 49 (vs. Normal): 18 ± 6%
[1]; [6]
  % RGCs loss at day 42 (vs. Norma): 11% and 11 ± 4%
[1]; [7]
  % RGCs loss at day 42 (vs. Norma): 29% and 29 ± 3%
[1]; [8]
  % RGCs loss at day 49 (vs. Normal): 26 ± 6%
[1]; day 42, intraocular injections at days 14 and 21, no betaxolol
  protection of RGCs, formula (testloss−day14loss)/(day42loss−day14loss)*100: ~25%
[1]; day 42, intraocular injections at days 14 and 21 in combination with daily betaxolol
  protection of RGCs: > 90%
[1]; day 49 glaucoma, intraocular injections at days 14 and 21, alone or with betaxolol
  effect on RGC survival / apoptosis: markedly reduced RGC apoptosis

## NGF: Nerve Growth Factor, neurotrophin that binds TrkA and p75
[1]; [6]
  % RGCs loss at day 42 (vs. Norma): 19 ± 4%
[1]; [7]
  % RGCs loss at day 42 (vs. Norma): 42 ± 5%
[1]; day 42 glaucoma, intraocular injections, with or without betaxolol
  protection of RGCs from death: did not protect

## YCATDIKGKECY (also: cyclic) [C(28-35) peptide, cyclic peptide analog of NGF β-turn 28-35, p75 receptor antagonist]
CNS; previous in vivo studies
  in vivo stability and efficacy in the CNS: in vivo stability and efficacy
p75 receptor
  effect on p75-NGF interactions: antagonist
[1]; [5]
  % RGCs loss at day 49 (vs. Normal): 29 ± 4%
[1]; [8]
  % RGCs loss at day 49 (vs. Normal): 32 ± 11%
[1]; rat, in vivo
  effect on RGC survival / apoptosis: did not enhance RGC survival; also recorded: did not prevent or reduce RGC death
Axotomized RGCs [4]
  protection of RGCs in vivo in optic nerve axotomy: short-term protection
